According to patent EP4656630A1, “NOVEL COMPOUND AS LYSYL-TRNA SYNTHETASE 1 INHIBITOR, AND USE THEREOF” (Zymedi Co., Ltd., priority 2023, dated 2024):
One block for each molecule: values may come before it.

Tests used:
[1] = Rat pharmacokinetics (po and iv) and bioavailability; assay type: in vivo; settings: for Cmax / Tmax / half-life / AUC: in vivo
Procedure: For this purpose, formulations suitable for peroral administration (po) and intravenous injection (iv) for each compound were first selected to ensure stable PK progression.
The formulation was selected under the condition of maintaining a clear solution for more than 1 hour at 10 and 30 mpk doses based on po, and the iv formulation was modified when iv use was not possible based on po (Table 8).
To confirm the oral administration potential of the selected compounds, 10 mpk rat po PK was conducted. The PK profile and key indicators after administering 10 mpk to five compounds, C0001, 25, 41, 42, and 43, are shown in Figure 3 and Table 9.
Based on the previous 10 mpk po rat PK results, 30 mpk po rat PK was conducted for four compounds, C0001, 25, 41, and 43, to confirm changes in the blood PK profile of the substances with increasing doses.
For these compounds, 2 mpk iv rat PK was conducted to calculate bioavailability (BA) (Table 11).

Raw264.7 cells = experiment: KARS1-induced trans-migration assay; assay type: cell-based, mouse; settings: Mus musculus, RAW264.7; for inhibition at 1 µM: 1 µM compound, read-out: KARS1-induced Raw264.7 cell migration (% inhibition, 1uM)
Procedure: C0001 inhibits the binding of KARS1 and 67LR, thereby blocking the migration of monocytes/macrophages and suppressing inflammation. Accordingly, a trans-migration assay using mouse macrophages (Raw264.7) was conducted to preliminarily screen drugs that inhibit the migration of monocytes/macrophages.
Based on this, when KARS1 protein was directly treated externally instead of LN, the trans-migration of Raw264.7 was induced, and the cell migration inhibitory effect of the KARS1 inhibitor C0001 was confirmed. It was verified that C0001, which specifically binds to KARS1, can inhibit cell migration by binding to extracellular KARS1, in addition to the mechanism of inhibiting cell membrane migration of KARS1 induced by laminin and its binding to 67LR, thereby enabling this analysis to be used as a direct method for evaluating in vitro activity against KARS1.
Next, preliminary candidate substances with high inhibitory activity at 1 µM were treated at concentrations of 0.1~4 µM for analysis.

[2] = Microsomal metabolic stability, human; assay type: in vitro ADME
Procedure: (§1) Metabolic stability (MS) evaluation was conducted for the selected compounds by measuring in vitro stability in two species, rat and human, according to the microsomal stability measurement method. As a result, it was identified that MS varied depending on the transformation of parts A, B, and C.

KARS1 and 37LR = target: T1, KARS1 and 37LR (Homo sapiens, UniProt Q15046); experiment: Cell-free ELISA of KARS1 and 37LR (laminin receptor) binding; settings: 10 µM compound, 1 hour, plate coated with KARS1 (1-207aa), LRF
T1 construct: KARS1 (1-207aa)
Procedure: Next, based on the mechanism of action, a cell-free ELISA analysis was conducted to select compounds with high inhibitory activity on the binding of KARS1 and LR (laminin receptor).

[3] = Microsomal metabolic stability, rat; assay type: in vitro ADME
Procedure: as §1

Raw 264.7 cells = experiment: LN (Laminin 421)-induced immune cell migration, Transwell; assay type: cell-based; settings: Mus musculus, RAW264.7; for inhibition at 3 µM: 3 µM compound, LN (Laminin 421 1 µg/ml), 24 hours, % inhibition compared to control group, read-out: Migration inhibitor % (3uM)
Procedure: Cell migration was assessed based on the method described in the prior literature (Park, S. G. et al. Human lysyl-tRNA synthetase is secreted to trigger proinflammatory response. Proceedings of the National Academy of Sciences, 2005, 102.18: 6356-6361.). The specific experimental method is as follows. A Transwell (Corning#3421-5µm pore) was coated with gelatin (0.5mg/ml), and then Raw 264.7 cells (1 x 10^5 cells/well) were seeded in the upper chamber. Serum-free medium (Serum Free DMEM, 500 µl) containing LN (Laminin 421 1 µg/ml) was added to the lower chamber. Each compound was treated at a concentration of 3µM in the upper chamber. After 24 hours, the cells were fixed with 70% methanol for 30 minutes and stained with 50% hematoxylin for 30 minutes. Non-migrating cells on the upper side of the membrane were removed with a cotton swab, and the membrane was mounted on a slide. Migrating cells on the lower side of the membrane were observed under a high-power microscope, and the number of cells was measured from the obtained images and expressed as the inhibition rate (% inhibition) compared to the control group.

Organ distribution = assay type: in vivo; parameters: Organ distribution Plasma (ng/ml): concentration or dose not given beside the values
[4] = S9 metabolic stability, dog; assay type: in vitro ADME
Procedure: (§2) Among these, secondary MS measurements were conducted for Compound 25 (C0047), Compound 43 (C0216), and C0001 using the S9 method. This test measured the remaining % at 30, 45, and 60 minutes for four species: mouse, rat, dog, and human.

[5] = S9 metabolic stability, human; assay type: in vitro ADME
Procedure: as §2

[6] = S9 metabolic stability, mouse; assay type: in vitro ADME
Procedure: as §2

[7] = S9 metabolic stability, rat; assay type: in vitro ADME
Procedure: as §2

T1 sequence (Q15046 1-207): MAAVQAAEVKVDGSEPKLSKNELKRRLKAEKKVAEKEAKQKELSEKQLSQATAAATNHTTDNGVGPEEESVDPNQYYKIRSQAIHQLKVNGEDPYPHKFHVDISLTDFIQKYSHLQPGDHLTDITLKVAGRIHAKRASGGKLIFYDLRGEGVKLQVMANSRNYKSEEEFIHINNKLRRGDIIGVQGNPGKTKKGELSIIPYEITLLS

- Cmax ([1]; 10 mg/kg, po, 10 mpk): 240 ng/mL
- Tmax ([1]; 10 mg/kg, po, 10 mpk): 0.67 h
- half-life ([1]; 10 mg/kg, po, 10 mpk): 79.2 min
- AUC ([1]; po, 10 mg/kg, 10 mpk): 1420 ng·h/mL
- Metabolic stability (% remaining at 30 min) Human [2]: 76%
- inhibition at 10 µM (KARS1 and 37LR): 65.6%
- Metabolic stability (% remaining at 30 min) Rat [3]: 43%
Structure (SMILES): COc1ccc(CCN(c2nc3cccc(F)c3s2)C(C)c2ccc(N3CC[C@H](C(=O)O)C3)cc2)cc1 (stereo partly drawn) [Compound 42, (3S)-1-(4-(1-((7-fluorobenzo[d]thiazol-2-yl)(4-methoxyphenethyl)-amino)ethyl)phenyl)pyrrolidine-3-carboxylic acid]
- inhibition at 1 µM (Raw264.7 cells): 85.8%
- inhibition at 3 µM (Raw 264.7 cells): 63.1%

- Cmax ([1]; 10 mg/kg, po, 10 mpk): 3320 ng/mL
- Tmax ([1]; 10 mg/kg, po, 10 mpk): 1.33 h
- half-life ([1]; 10 mg/kg, po, 10 mpk): 57 min
- Cmax ([1]; 30 mg/kg, po, 30 mpk): 12800 ng/mL
- Tmax ([1]; 30 mg/kg, po, 30 mpk): 1.67 h
- half-life ([1]; 30 mg/kg, po, 30 mpk): 60 min
- AUC ([1]; iv, 2 mg/kg, 2 mpk): 2690 ng·h/mL
- AUC ([1]; po, 10 mg/kg, 10 mpk): > 5000 ng·h/mL
- AUC ([1]; po, 10 mg/kg, 10 mpk (Table 11)): 9710 ng·h/mL
- AUC ([1]; po, 30 mg/kg, 30 mpk): 55300 ng·h/mL
- AUC ([1]; po, 30 mg/kg, 30 mpk (Table 11)): 55300 ng·h/mL
- BA (%) ([1]; po, 10 mpk against iv 2 mpk): 72.2%
- AUC (ng*h/ml) ([1]; po, 10 mpk, listed as 43 (C0216), 10 mg/kg): 9,711 ng*h/ml
- BA (%) ([1]; po, 30 mpk against iv 2 mpk): 137.0%
- AUC value increase at 30 mpk ([1]; po, 30 mpk compared with 10 mpk): 5.7 times
- EC50 (Raw264.7 cells; KARS1-induced cell migration, 0.1~4 µM): 640 nM
- Organ distribution (ratio per plasma) Brain (Organ distribution; 0.5 h): 0.09
- Organ distribution (ratio per plasma) Brain (Organ distribution; 6.0 h): 0.92
- Organ distribution (ratio per plasma) Heart (Organ distribution; 0.5 h): 0.42
- Organ distribution (ratio per plasma) Heart (Organ distribution; 6.0 h): 0.35
- Organ distribution (ratio per plasma) Kidney (Organ distribution; 0.5 h): 0.61
- Organ distribution (ratio per plasma) Kidney (Organ distribution; 6.0 h): 1.89
- Organ distribution (ratio per plasma) Liver (Organ distribution; 0.5 h): 1.70
- Organ distribution (ratio per plasma) Liver (Organ distribution; 6.0 h): 3.56
- Organ distribution (ratio per plasma) Lung (Organ distribution; 0.5 h): 4.30
- Organ distribution (ratio per plasma) Lung (Organ distribution; 6.0 h): 0.55
- Organ distribution Plasma (ng/ml) (Organ distribution; 0.5 h): 19,420 ng/ml
- Organ distribution Plasma (ng/ml) (Organ distribution; 6.0 h): 5,366 ng/ml
- Metabolic stability (% remaining at each time) Dog (min) 30 ([4]; 30 min): 110.9%
- Metabolic stability (% remaining at each time) Dog (min) 45 ([4]; 45 min): 117.3%
- Metabolic stability (% remaining at each time) Dog (min) 60 ([4]; 60 min): 100.6%
- Metabolic stability (% remaining at each time) Human (min) 30 ([5]; 30 min): 87.3%
- Metabolic stability (% remaining at each time) Human (min) 45 ([5]; 45 min): 80.7%
- Metabolic stability (% remaining at each time) Human (min) 60 ([5]; 60 min): 92.4%
- Metabolic stability (% remaining at 30 min) Human [2]: 85%
- inhibition at 10 µM (KARS1 and 37LR): 67.1%
- Metabolic stability (% remaining at each time) Mouse (min) 30 ([6]; 30 min): 79.8%
- Metabolic stability (% remaining at each time) Mouse (min) 45 ([6]; 45 min): 77.7%
- Metabolic stability (% remaining at each time) Mouse (min) 60 ([6]; 60 min): 73.2%
- Metabolic stability (% remaining at each time) Rat (min) 30 ([7]; 30 min): 99.2%
- Metabolic stability (% remaining at each time) Rat (min) 45 ([7]; 45 min): 81.6%
- Metabolic stability (% remaining at each time) Rat (min) 60 ([7]; 60 min): 88.0%
- Metabolic stability (% remaining at 30 min) Rat [3]: 80%
- EC50 (Raw 264.7 cells; LN-induced cell migration, read-out: EC50 for cell migration inhibition induced by LN): 5.09 µM
Structure (SMILES): COc1ccc(CCN(Cc2ccc(N3CC[C@H](C(=O)O)C3)cc2)c2nc3c(F)c(F)cc(F)c3s2)cc1 [Compound 43, (S)-1-(4-(((4-methoxyphenethyl)(4,5,7-trifluorobenzo[d]thiazol-2-yl)amino)methyl)phenyl)pyrrolidine-3-carboxylic acid]
- inhibition at 1 µM (Raw264.7 cells): 98.4%
- inhibition at 3 µM (Raw 264.7 cells): 31.1%
